One assay concerns the target T1, Nox1 (Homo sapiens, UniProt Q9Y5S8).
T1 construct: expressed in transfected cells; host or cells: COS22 (monkey kidney COS cells stably expressing human p22phox)
T1 sequence (Q9Y5S8 1-564): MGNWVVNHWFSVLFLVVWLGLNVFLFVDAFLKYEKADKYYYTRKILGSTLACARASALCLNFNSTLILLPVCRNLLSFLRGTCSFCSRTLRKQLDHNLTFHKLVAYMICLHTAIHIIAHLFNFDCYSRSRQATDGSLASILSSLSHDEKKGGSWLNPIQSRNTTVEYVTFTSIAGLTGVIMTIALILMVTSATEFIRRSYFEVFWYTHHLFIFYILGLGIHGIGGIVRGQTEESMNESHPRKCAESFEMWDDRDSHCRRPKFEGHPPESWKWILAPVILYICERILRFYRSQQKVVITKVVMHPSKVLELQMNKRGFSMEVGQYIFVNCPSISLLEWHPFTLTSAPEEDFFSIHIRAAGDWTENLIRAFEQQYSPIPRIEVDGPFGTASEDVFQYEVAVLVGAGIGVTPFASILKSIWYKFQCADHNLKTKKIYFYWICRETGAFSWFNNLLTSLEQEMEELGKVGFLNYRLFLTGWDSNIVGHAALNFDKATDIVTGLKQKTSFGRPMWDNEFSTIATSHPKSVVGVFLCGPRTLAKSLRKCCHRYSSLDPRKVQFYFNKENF
T1 sequence (P13498 1-195 partner): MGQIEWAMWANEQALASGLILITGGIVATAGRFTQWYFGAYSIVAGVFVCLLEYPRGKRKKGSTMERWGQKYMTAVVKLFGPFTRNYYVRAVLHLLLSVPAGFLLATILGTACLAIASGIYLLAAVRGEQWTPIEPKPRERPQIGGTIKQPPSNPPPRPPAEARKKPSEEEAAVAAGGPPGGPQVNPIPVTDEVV
The assay is described as follows: O2- production by COS22 cells transfected with Nox1 (cytochrome c reduction). The format is cell-based. Conditions: COS 22; at a dose of 1.0 μM; read-out: Maximal inhibition of total O2- production. As for the experimental part:
Experiments were performed to test the effect of NoxA1ds on O2^− production by Nox1. COS22 is a monkey kidney COST cell line expressing transgenic human p22phox and was produced by stable transfection of the full-length p22phox cDNA into parental COST wild-type cells. COS22 cells were transfected with Nox1 to express the Nox1 enzyme and were then treated with either NoxA1ds or its scrambled control (SCRMB). Production of O2^− was calculated by monitoring the reduction of cytochrome c for 15 minutes post NADPH addition and subtracting baseline cytochrome c reduction occurring in the presence of SOD.

In the next assay the test system is Nox1-YFP. The assay is described as follows: Image cross correlation spectroscopy (ICCS) of R-NoxA1ds and Nox1-YFP. The format is binding. The note with it: unlabelled competitor. As for the experimental part:
An ELISA of Nox1:NoxA1ds interaction was performed as follows. Neutravidin coated plates were incubated with biotin-tagged NoxA1ds (Biotin-NoxA1ds) or biotin-tagged SCRMB (Biotin-SCRMB) before addition of cell membranes prepared from cells transfected with Nox1 (Nox1 membrane) or transfected with an empty vector (COS22 membrane). Bound Nox1 was detected through a FITC conjugated secondary antibody (αRabbit Ab Sigma F9887) bound to the Nox1 primary antibody (rabbit αNox1 Ab (SC-25545, Santa Cruz Biotechnology)). FITC fluorescence was expressed as binding as % COS22 membranes on each experimental day. […] To further confirm the association, image cross correlation spectroscopy (ICCS) was used to determine patterns in signal fluctuation between rhodamine-labeled NoxA1ds (R-NoxA1ds) and Nox1-YFP though a sequence of 100 images 0.05 s apart. Correlation and cross-correlation was calculated using an ImageJ plugin.

Assay [1] relates to rat aortic smooth muscle cells. Nature of the assay: O2- production by rat aortic smooth muscle cells under static conditions or cyclic stretch. The format is cell-based. As for the experimental part:
FIG. 8. NoxA1ds attenuates stretch-induced O2^− production: Effect of NoxA1ds on O2^− production by rat aortic smooth muscle cells subjected to static conditions or cyclic stretch (10%, 1 Hz, 24 hrs). NoxA1ds was added 4 hrs before measuring O2^− production.
Cyclic stretching of vascular cells occurs as a result of the pulsatile nature of blood flow but is increased in hypertensive states, and has been associated with generation of ROS and possibly cell proliferation. […] At the end of 24 hrs, cells were lysed and membrane fraction O2^− production was measured using cytochrome c.

In assay [2] the test system is rat aortic smooth muscle cells. Nature of the assay: Calponin and osteopontin expression in stretched rat aortic smooth muscle cells (Western blot). Format: cell-based. Conditions: 10 μM added every four hours; cyclic stretch 24 hrs. As for the experimental part:
The effect of Nox1 inhibition on the expression of certain protein markers of rat aortic smooth muscle cell contractile vs. synthetic phenotypes was evaluated. Cells were subjected to 24 hrs of cyclic stretch (10%, 1 Hz) with 10 μM NoxA1ds or SCRMB control being added every four hours. […] Calponin expression during stretch was rescued by the addition of 10 μM NoxA1ds, yet was unaffected by the addition of 10 μM scrambled peptide (SCRMB). A representative Western blot is shown below the graph (FIG. 9B). Osteopontin (OPN, a marker of the […] phenotype), expression increased after 24 hrs of stretch.
(In general: A western blot detects proteins with antibodies after separation by electrophoresis.)

The test system of assay [3] is human pulmonary artery endothelial cells. The assay is described as follows: Hypoxia-induced superoxide production by human pulmonary artery endothelial cells. Format: cell-based. As for the experimental part:
Experiments were also performed to evaluate the effect of NoxA1ds on hypoxia-induced superoxide production by human pulmonary artery endothelial cells.

Assay [4] concerns rat aortic smooth muscle cells. The assay is described as follows: Stretch-induced migration of rat aortic smooth muscle cells (wound closure). The format is cell-based. Conditions: 10 μM added every four hours; cyclic stretch 24 hrs. Here is the method:
The effect on NoxA1ds on stretch-induced migration of rat aortic smooth muscle cells was studied. Cell monolayer cultures with an introduced gap (“wound”) were subjected to 24 hrs of cyclic stretch (10%, 1 Hz) with 10 μM NoxA1ds or SCRMB control being added every four hours. Cell migration may be assessed as the distance the wound has closed, where greater […] corresponds to greater migration. Cell migration increased as a result of cyclic stretch.

For assay [5], the system named is HT-29 colon adenocarcinoma cells. The assay is described as follows: O2- production by HT-29 cells (SOD inhibitable reduction of cytochrome c). Format: cell-based. The note with it: increasing doses.

“Also recorded” adds a separate entry of the source.

A word on the inhibition: it is how much of the control response was suppressed. On to “H-EPVDALGKAKV-NH2 [NoxA1ds, [NH3^+]-EPVDALGKAKV-[CONH2]]”, for which the inhibition at 1 µM at Nox1 came out at 88%. Moreover, the “Effect of competition with R-NoxA1ds on fractional binding” value in the assay on Nox1-YFP was “significantly reduced the fractional binding”. In addition, the “Cyclic stretch-induced O2- production” value in assay [1] (cyclic stretch 10%, 1 Hz, 24 hrs, peptide added at t=20 hrs (4 hrs before measuring)) is listed as “completely abrogated; also recorded: inhibited”. Also, in assay [1] (static, 10 μM), the “O2- production under static conditions” value was “negligible effect”. In addition, in assay [2], the “Calponin expression during stretch” value was “rescued” and the “Osteopontin (OPN) expression during stretch” value is recorded as “returned to levels observed in the absence of stretch”. Besides, the “O2- production under hypoxia” value in assay [3] (hypoxia 1.0% O2, 24 hrs) is on record as “returned to the amount observed under normoxia”. The “O2- production under normoxic conditions” value in assay [3] (normoxia) is “negligible effect”. Besides, the “Stretch-induced cell migration (wound closure)” value in assay [4] is reported as “reduced migration to levels observed in non-stretched cells”. For the same substance, in assay [5], the “Inhibition of O2- production by HT-29 cells” value was “dose-dependent inhibition”.
